Data on three molecules can be found in ChEMBL document CHEMBL5325475, “Discovery of a Potent and Selective Tyrosine Kinase 2 Inhibitor: TAK-279” (J Med Chem, 2023).

Series [1] can be described thus: in vivo. Particulars: Sprague-Dawley, rat, po, 10 mg/kg.
A short description of series [2]: in vivo. The note with it: cynomolgus monkey, po, 10 mg/kg.
Series [3] is described as follows: in vivo. Particulars: cynomolgus monkey, po, 10 mg/kg. The source holds these as a separate data set.
Series [4] can be described thus: in vivo. The note with it: beagle, dog, po, 10 mg/kg.
Series [5] in a line: in vivo. The note with it: C57Bl/6, mouse, po, 10 mg/kg.
Series [6] is described as follows: in vivo. Particulars: C57Bl/6, mouse, po, 10 mg/kg. This is another data set of the same source.
Series [7] is described as follows: in vivo. Particulars: Sprague-Dawley, rat, po, 10 mg/kg. This is another data set of the same source.
A short description of series [8]: in vivo. Particulars: beagle, dog, po, 10 mg/kg. The source holds these as a separate data set.

Take `CNc1cc(Nc2cccn(-c3ccccn3)c2=O)nc2c(C(=O)N[C@H]3CC[C@@H]3OC)cnn12` (single isomer, unassigned): the bioavailability in “in vivo [1]” worked out at 37%; in “in vivo [2]” it was 47%; in “in vivo [6]”, 70%; in “in vivo [8]” it was 47%. In addition, the half-life in the series “in vivo [3]” was 3.8 h; in “in vivo [4]”, 5.3 h; in the series “in vivo [5]”, 2 h; in the series “in vivo [7]”, 1.2 h.

Regarding `CNc1cc(Nc2cccn(-c3ncccc3F)c2=O)nc2c(C(=O)N[C@@H]3CC[C@H]3OC)cnn12`, the bioavailability in “in vivo [1]” was found to be 30%. For the same molecule, the half-life in the series “in vivo [5]” is 2.1 h; in the series “in vivo [7]”, 5.9 h.

In the case of `CNc1cc(Nc2cccn(-c3ncccc3F)c2=O)nc2c(C(=O)N[C@@H]3C[C@@H]3F)cnn12`, the bioavailability in “in vivo [1]” amounted to 59%; in the series “in vivo [2]”, 97%; in the series “in vivo [6]” it was 52%; in the series “in vivo [8]”, 51%. Further, the half-life is 1.4 h in the series “in vivo [3]”, 3 h in “in vivo [4]”, 2.2 h in “in vivo [5]” and 2.7 h in “in vivo [7]”.

For orientation: bioavailability means the share of a dose that reaches the circulation, judged against a reference dose that is usually intravenous. Lower therefore signals poor availability. Broadly, the half-life is the time needed for the level to fall by half in the phase considered.
